Results on 3 compounds are retold here after ChEMBL document CHEMBL1152560, “Substituted 2-arylbenzothiazoles as kinase inhibitors: hit-to-lead optimization” (Bioorg Med Chem, 2009).

The subject of assay [1] is T1, Receptor-type tyrosine-protein kinase FLT3 (Homo sapiens), P36888 [D835Y].
T1 sequence (whole entry): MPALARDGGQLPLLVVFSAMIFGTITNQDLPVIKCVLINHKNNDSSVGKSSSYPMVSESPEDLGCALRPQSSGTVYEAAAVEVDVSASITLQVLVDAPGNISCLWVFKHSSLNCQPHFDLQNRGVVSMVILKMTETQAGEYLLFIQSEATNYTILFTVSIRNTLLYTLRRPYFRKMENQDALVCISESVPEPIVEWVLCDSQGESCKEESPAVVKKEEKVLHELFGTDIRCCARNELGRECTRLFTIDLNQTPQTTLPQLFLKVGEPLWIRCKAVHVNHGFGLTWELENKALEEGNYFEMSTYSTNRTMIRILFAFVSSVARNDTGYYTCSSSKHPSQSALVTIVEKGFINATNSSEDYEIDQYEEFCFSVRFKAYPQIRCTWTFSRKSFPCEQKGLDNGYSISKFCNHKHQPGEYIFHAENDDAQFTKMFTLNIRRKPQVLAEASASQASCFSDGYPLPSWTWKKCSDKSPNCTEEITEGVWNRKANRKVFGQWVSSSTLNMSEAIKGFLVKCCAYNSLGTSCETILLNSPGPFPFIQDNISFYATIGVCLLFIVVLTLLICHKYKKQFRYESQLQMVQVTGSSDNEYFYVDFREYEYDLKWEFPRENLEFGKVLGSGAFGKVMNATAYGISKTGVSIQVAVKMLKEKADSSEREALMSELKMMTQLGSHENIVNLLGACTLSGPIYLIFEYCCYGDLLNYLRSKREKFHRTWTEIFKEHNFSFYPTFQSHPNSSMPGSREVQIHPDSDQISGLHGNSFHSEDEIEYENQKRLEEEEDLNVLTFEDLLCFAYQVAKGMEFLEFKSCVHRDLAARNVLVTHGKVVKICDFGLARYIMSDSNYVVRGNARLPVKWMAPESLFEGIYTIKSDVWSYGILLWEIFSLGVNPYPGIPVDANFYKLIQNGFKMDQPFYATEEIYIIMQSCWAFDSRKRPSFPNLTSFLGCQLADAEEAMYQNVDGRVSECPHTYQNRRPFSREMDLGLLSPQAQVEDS
Description: Residual activity of FLT3 D835Y mutant at 0.1 uM by microplate scintillation counting.

Assay [2] concerns the target T2, Serine/threonine-protein kinase Nek1 (Homo sapiens) (UniProt Q96PY6).
T2 sequence (whole entry): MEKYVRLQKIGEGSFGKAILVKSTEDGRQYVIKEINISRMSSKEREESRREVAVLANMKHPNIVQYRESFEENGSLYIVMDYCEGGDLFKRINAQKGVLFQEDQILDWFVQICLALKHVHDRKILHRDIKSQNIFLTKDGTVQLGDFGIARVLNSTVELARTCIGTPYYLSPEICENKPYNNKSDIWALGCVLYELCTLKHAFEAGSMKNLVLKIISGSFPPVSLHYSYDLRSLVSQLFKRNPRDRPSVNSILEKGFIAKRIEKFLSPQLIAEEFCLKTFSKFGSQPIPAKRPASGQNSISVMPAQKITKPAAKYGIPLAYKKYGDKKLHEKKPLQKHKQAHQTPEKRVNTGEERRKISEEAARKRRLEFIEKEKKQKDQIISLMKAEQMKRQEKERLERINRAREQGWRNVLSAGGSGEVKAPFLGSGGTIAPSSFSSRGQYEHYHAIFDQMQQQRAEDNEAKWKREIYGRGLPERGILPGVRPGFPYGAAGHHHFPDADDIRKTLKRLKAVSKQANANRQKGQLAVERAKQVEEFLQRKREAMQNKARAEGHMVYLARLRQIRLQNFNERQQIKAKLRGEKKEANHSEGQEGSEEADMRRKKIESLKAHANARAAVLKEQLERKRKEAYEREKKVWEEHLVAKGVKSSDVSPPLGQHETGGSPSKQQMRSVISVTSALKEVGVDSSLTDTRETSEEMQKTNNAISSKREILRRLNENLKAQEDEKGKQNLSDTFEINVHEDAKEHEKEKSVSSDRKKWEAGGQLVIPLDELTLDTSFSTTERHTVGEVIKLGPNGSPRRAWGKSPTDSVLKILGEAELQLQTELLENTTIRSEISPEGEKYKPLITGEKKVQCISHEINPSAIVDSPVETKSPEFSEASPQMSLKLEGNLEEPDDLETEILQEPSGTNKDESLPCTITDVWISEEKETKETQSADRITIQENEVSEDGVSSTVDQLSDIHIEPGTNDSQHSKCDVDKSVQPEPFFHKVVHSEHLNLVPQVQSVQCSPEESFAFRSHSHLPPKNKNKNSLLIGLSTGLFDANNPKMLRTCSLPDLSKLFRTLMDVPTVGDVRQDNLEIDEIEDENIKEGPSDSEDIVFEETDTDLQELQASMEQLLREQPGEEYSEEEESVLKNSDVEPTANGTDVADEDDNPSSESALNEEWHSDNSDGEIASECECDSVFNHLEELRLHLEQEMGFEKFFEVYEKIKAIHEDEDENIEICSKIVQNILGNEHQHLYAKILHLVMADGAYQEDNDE
Description: Residual activity of NEK1 at 10 uM by microplate scintillation counting.

Assay [3] concerns the target T3, Protein kinase C epsilon type (Homo sapiens) (UniProt Q02156).
T3 sequence (whole entry): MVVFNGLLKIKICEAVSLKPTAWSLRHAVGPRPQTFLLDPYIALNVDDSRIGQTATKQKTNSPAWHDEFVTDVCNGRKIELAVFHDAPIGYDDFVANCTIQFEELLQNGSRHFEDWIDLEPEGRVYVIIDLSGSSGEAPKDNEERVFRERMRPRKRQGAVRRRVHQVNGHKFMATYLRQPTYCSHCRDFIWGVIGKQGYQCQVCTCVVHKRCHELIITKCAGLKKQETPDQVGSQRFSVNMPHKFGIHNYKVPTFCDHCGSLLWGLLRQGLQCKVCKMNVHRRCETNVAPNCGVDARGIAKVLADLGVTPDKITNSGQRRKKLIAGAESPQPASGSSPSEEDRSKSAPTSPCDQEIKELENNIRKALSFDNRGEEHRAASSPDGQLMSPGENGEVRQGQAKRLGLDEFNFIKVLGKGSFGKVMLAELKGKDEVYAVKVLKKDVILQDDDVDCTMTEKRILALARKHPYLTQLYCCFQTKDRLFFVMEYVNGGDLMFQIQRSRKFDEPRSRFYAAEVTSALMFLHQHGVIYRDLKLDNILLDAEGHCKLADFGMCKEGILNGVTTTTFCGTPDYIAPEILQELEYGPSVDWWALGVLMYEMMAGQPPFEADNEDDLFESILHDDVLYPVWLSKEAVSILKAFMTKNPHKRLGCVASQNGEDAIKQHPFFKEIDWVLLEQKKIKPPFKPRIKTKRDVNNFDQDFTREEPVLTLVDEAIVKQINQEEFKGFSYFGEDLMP
Description: Residual activity of PKCepsilon at 1 uM by microplate scintillation counting.

In assay [4] the target is Non-receptor tyrosine-protein kinase TYK2 (Homo sapiens) (UniProt P29597). Description: Residual activity of TYK2 at 10 uM by microplate scintillation counting.
Chain of Non-receptor tyrosine-protein kinase TYK2 (Homo sapiens) (P29597 whole entry): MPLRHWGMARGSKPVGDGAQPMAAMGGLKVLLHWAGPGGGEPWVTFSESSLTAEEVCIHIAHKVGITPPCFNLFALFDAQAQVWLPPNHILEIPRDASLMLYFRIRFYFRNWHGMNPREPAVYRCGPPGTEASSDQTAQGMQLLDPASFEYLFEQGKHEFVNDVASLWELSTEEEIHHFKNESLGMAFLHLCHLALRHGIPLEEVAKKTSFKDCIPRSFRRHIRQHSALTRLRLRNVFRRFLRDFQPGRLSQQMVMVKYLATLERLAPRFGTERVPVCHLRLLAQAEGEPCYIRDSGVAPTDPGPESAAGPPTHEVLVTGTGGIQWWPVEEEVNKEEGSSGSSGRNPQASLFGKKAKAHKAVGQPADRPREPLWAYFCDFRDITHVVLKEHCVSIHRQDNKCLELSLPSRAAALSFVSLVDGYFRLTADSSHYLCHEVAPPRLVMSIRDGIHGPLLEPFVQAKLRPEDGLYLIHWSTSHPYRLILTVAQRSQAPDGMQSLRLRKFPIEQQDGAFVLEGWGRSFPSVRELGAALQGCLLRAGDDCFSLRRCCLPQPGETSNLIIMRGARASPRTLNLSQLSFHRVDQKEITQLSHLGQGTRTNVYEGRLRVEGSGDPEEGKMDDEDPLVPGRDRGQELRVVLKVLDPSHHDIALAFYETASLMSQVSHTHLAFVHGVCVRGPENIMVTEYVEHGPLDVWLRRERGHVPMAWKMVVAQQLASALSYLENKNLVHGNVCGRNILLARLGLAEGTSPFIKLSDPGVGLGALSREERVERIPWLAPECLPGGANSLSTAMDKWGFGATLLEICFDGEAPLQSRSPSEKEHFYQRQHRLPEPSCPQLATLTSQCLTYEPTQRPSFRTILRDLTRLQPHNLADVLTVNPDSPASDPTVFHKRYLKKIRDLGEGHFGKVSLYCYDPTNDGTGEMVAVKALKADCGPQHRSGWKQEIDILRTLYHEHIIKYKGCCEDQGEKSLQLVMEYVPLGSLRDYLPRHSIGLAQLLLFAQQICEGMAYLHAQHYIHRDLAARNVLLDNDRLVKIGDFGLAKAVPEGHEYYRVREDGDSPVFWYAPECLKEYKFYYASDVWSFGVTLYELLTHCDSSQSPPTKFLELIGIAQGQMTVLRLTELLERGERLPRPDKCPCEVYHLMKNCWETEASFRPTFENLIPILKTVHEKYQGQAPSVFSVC

Broadly, the residual activity is the signal under treatment as a percentage of the control signal. Consider `COc1cc2c(Oc3ccc(-c4nc5ccccc5s4)cc3)ncnc2cc1OCCCN1CCN(C)CC1`, for which the residual activity in assay [1] turned out to be 86%; in assay [2] it was 104%; in assay [3] it was 94%; in assay [4] it was 72%.
On to `COc1cc2c(Oc3ccc(-c4nc5ccccc5s4)cc3)ncnc2cc1OCCCN1CCCC1`, for which the residual activity was 83% in assay [1], 93% in assay [2], 80% in assay [3] and 72% in assay [4].
As to `COc1cc2c(Oc3ccc(-c4nc5ccccc5s4)cc3F)ncnc2cc1OCCCN1CCN(C)CC1`, the residual activity was 79% in assay [1], 101% in assay [2], 90% in assay [3] and 55% in assay [4].
